# Laboratory results: patent US11117892B2, “Pyrrolo-pyridine derivative compound, method for preparing same, and pharmaceutical composition containing same as active ingredient for prevention or treatment of protein kinase-related diseases” (DAEGU-GYEONGBUK MEDICAL INNOVATION FOUNDATION, priority 2017, dated 2021)
# Read-outs that look alike come from different tables or passages of the source.
# What was measured:
# Assay in all cases: scanMAX Kinase assay panel
# Assay type in all cases: binding
# Conditions in all cases: read-out: % control
# [1] = molecular target: ABL1(H396P)-phosphorylated (Homo sapiens (Human), UniProt P00519, H396P)
# Method: (§1) DiscoverX Co. was asked to measure the enzyme (kinase) selectivity, and the experiment was performed using scanMAX™ Kinase assay panel.
# (§2) (Example Compound−Positive Control)/(Negative Control−Positive Control)×100 [Equation 1]
# (§3) Herein, the positive control indicates the compound showing the % control of 0%, and the negative control indicates DMSO showing the % control of 100%.
# AKT1 = AKT1 (Homo sapiens (Human), UniProt P31749)
# Method: as §1, §2, §3
# BMPR1A = BMPR1A (Homo sapiens (Human), UniProt P36894)
# Chain of BMPR1A (P36894 24-532): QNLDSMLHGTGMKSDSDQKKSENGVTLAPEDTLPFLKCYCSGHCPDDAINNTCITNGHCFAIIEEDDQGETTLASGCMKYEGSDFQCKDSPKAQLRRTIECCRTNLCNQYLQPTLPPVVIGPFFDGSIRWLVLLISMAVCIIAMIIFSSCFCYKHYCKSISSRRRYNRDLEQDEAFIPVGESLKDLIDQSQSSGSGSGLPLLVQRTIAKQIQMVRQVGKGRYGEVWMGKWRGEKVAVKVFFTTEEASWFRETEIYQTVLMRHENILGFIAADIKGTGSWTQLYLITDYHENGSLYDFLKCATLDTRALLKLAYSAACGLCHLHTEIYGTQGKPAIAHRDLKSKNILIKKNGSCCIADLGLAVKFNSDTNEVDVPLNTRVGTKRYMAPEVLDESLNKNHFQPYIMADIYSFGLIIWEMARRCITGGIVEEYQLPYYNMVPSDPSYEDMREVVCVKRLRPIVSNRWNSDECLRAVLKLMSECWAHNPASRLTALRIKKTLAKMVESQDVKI
# Method: as §1, §2, §3
# CAMK1 = CAMK1 (Homo sapiens (Human), UniProt Q14012)
# Method: as §1, §2, §3
# CDKL1 = CDKL1 (Homo sapiens (Human), UniProt Q00532)
# Method: as §1, §2, §3
# CSNK1D = CSNK1D (Homo sapiens (Human), UniProt P48730)
# Method: as §1, §2, §3
# CTK = CTK (Homo sapiens (Human), UniProt P42679)
# Chain of CTK (P42679 whole entry): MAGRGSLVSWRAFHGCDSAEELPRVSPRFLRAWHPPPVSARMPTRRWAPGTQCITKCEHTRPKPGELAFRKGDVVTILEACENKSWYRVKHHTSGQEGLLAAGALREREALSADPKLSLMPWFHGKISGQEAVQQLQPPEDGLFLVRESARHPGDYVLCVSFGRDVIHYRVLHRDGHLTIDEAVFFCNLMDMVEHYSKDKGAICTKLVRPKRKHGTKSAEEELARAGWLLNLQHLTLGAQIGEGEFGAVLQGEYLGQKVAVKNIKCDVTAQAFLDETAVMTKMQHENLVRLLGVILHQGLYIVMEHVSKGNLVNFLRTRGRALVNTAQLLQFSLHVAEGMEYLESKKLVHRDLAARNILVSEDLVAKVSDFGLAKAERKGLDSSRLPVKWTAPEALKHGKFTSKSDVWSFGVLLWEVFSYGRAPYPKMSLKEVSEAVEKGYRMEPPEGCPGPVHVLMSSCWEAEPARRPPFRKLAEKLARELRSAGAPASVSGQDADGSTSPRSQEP
# Method: as §1, §2, §3
# DDR2 = DDR2 (Homo sapiens (Human), UniProt Q16832)
# Method: as §1, §2, §3
# DMPK = DMPK (Homo sapiens (Human), UniProt Q09013)
# Chain of DMPK (Q09013 whole entry): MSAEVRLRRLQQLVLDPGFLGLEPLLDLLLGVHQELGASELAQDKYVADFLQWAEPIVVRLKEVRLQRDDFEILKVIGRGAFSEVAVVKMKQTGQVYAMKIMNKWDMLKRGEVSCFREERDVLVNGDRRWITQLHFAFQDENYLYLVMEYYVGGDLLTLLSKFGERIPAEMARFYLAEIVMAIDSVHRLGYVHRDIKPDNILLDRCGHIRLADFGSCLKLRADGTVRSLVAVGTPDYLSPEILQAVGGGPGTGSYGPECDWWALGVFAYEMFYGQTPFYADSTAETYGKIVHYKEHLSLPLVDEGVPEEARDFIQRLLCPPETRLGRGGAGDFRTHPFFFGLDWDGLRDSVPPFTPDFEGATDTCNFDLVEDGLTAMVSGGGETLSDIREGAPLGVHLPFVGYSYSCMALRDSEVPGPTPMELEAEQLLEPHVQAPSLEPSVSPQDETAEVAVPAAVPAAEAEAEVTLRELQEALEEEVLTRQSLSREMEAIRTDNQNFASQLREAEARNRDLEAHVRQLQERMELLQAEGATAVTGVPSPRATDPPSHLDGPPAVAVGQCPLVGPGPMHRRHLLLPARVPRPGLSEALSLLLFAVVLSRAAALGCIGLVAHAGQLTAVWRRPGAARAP
# Method: as §1, §2, §3
# [2] = molecular target: EGFR(L747-S752del, P753S) (Homo sapiens (Human), UniProt P00533, DEL747-752/P753S)
# Method: as §1, §2, §3
# EPHA5 = EPHA5 (Homo sapiens (Human), UniProt P54756)
# Chain of EPHA5 (P54756 25-1037): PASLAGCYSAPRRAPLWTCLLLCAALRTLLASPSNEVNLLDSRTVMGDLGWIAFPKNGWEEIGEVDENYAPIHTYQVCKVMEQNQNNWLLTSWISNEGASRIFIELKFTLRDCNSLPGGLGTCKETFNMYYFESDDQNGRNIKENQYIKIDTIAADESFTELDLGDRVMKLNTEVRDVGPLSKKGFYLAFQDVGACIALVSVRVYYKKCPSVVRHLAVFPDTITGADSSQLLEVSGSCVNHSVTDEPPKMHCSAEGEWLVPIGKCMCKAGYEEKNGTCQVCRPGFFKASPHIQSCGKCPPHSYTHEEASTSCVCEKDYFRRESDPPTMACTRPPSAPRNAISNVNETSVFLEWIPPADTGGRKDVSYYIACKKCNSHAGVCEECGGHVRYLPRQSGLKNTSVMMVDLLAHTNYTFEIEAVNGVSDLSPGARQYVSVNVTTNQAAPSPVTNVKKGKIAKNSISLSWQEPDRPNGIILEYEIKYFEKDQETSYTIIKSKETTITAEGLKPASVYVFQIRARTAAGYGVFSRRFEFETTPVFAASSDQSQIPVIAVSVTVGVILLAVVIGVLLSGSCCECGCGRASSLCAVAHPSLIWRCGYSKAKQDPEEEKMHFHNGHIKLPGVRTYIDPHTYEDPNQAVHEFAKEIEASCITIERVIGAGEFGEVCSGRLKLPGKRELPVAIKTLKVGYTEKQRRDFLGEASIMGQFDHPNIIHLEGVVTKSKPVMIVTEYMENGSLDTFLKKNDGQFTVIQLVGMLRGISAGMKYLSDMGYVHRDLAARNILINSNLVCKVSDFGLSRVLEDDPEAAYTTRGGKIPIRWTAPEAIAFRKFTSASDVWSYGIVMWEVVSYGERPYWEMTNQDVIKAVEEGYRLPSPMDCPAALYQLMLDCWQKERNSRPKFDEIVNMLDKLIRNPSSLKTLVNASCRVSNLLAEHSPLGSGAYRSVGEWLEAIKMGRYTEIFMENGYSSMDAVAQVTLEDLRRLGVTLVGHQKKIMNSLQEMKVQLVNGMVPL
# Method: as §1, §2, §3
# IRAK4 = IRAK4 (Homo sapiens (Human), UniProt Q9NWZ3)
# Method: as §1, §2, §3
# ITK = ITK (Homo sapiens (Human), UniProt Q08881)
# Method: as §1, §2, §3
# JNK1 = JNK1 (Homo sapiens (Human), UniProt P45983)
# Method: as §1, §2, §3
# KIT(D816H) = KIT(D816H) (Homo sapiens (Human), UniProt P10721, D816H)
# Chain of KIT(D816H) (P10721 26-976 D816H): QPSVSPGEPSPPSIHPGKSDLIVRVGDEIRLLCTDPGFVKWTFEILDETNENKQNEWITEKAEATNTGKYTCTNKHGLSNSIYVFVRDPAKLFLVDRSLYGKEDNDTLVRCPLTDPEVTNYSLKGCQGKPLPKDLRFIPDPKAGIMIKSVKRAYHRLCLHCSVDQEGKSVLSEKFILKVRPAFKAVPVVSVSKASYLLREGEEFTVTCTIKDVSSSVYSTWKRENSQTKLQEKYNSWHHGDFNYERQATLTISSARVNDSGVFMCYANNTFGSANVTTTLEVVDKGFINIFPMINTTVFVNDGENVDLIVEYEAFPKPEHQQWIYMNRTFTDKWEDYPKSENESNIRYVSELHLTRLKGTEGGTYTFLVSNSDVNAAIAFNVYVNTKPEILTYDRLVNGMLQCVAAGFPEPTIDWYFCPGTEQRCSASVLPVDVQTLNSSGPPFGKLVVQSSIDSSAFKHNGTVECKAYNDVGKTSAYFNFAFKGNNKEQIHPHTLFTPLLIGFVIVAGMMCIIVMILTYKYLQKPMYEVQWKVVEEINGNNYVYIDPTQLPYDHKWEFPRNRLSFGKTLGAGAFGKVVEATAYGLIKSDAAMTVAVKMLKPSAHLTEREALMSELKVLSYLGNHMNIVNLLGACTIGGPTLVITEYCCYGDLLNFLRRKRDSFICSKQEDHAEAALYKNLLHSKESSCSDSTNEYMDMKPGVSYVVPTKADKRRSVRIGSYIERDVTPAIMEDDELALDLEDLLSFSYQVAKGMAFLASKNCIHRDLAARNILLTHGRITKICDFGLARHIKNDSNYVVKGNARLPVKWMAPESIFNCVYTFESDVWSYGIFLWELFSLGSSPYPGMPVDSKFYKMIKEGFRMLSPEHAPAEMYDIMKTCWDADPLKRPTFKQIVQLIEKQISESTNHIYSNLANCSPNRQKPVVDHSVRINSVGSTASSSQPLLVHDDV
# Method: as §1, §2, §3
# MKK7 = MKK7 (Homo sapiens (Human), UniProt O14733)
# Method: as §1, §2, §3
# NDR1 = NDR1 (Homo sapiens (Human), UniProt Q15208)
# Method: as §1, §2, §3
# NEK10 = NEK10 (Homo sapiens (Human), UniProt Q6ZWH5)
# Method: as §1, §2, §3
# PAK3 = PAK3 (Homo sapiens (Human), UniProt O75914)
# Method: as §1, §2, §3
# PDGFRB = PDGFRB (Homo sapiens (Human), UniProt P09619)
# Method: as §1, §2, §3
# PIP5K2C = PIP5K2C (Homo sapiens (Human), UniProt Q8TBX8)
# Method: as §1, §2, §3
# [3] = molecular target: RSK4(Kin.Dom.2-C-terminal) (Homo sapiens (Human), UniProt Q9UK32)
# Method: as §1, §2, §3
# SLK = SLK (Homo sapiens (Human), UniProt Q9H2G2)
# Method: as §1, §2, §3
# SRMS = SRMS (Homo sapiens (Human), UniProt Q9H3Y6)
# Method: as §1, §2, §3
# STK36 = STK36 (Homo sapiens (Human), UniProt Q9NRP7)
# Method: as §1, §2, §3
# TXK = TXK (Homo sapiens (Human), UniProt P42681)
# Method: as §1, §2, §3
# ULK1 = ULK1 (Homo sapiens (Human), UniProt O75385)
# Method: as §1, §2, §3
# YANK3 = YANK3 (Homo sapiens (Human), UniProt Q86UX6)
# Method: as §1, §2, §3
# YSK4 = YSK4 (Homo sapiens (Human), UniProt Q56UN5)
# Chain of YSK4 (Q56UN5 whole entry): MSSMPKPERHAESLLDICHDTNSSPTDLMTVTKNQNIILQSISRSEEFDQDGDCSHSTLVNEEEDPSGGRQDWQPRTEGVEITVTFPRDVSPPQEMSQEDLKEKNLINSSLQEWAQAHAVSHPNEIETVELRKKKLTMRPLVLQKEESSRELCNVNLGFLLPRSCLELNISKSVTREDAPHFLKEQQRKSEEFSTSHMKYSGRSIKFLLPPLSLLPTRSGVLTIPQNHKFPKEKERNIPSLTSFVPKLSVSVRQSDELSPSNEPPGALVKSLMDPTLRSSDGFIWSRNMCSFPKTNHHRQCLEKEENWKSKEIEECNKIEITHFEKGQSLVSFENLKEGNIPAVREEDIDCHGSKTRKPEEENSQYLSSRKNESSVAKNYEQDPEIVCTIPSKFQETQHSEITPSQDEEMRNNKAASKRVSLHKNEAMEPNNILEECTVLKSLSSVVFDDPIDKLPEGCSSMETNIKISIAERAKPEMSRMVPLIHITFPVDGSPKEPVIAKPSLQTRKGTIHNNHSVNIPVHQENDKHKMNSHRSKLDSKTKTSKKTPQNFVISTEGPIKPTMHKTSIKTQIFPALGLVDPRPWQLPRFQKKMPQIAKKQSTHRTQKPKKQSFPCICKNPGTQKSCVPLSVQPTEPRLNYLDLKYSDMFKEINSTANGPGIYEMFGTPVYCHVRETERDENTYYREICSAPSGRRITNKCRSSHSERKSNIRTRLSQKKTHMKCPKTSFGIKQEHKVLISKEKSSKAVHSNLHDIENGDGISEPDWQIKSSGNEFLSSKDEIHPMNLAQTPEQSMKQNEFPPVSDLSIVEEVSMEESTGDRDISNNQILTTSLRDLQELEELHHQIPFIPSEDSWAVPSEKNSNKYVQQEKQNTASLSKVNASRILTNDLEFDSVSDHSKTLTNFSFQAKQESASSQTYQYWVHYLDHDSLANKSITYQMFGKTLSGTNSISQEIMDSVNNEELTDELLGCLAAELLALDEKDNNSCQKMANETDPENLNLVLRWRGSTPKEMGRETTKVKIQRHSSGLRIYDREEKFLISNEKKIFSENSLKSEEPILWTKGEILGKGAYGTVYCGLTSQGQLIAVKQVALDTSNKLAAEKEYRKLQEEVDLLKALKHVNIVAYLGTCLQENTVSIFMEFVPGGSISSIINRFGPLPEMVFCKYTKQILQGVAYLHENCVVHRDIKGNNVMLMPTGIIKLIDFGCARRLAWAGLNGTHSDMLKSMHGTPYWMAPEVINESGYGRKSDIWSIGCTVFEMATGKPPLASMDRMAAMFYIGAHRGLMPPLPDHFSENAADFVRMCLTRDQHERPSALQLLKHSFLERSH
# Method: as §1, §2, §3
# CDC2L5 = CDC2L5 (Homo sapiens (Human), UniProt Q14004)
# Method: (§4) Particularly, the compounds of Examples 18 and 57 were selected among all of those compounds of the present invention. DiscoverX Co. was asked to measure the enzyme (kinase) selectivity, and the experiment was performed using scanMAX™ Kinase assay panel.
# (§5) At this time, the concentration of the drug treated to each enzyme was 1 uM in DMSO and the control percentage (% control) was determined by the following Equation 1. (Example Compound−Positive Control)/(Negative Control−Positive Control)×100 [Equation 1]
# (§6) Herein, the positive control indicates the compound showing the % control of 0%, and the negative control indicates DMSO showing the % control of 100%. The enzyme selectivity in the present invention is defined as follows: When the % control for each enzyme is less than 35% (<35%), it is judged that the compound has the activity to the corresponding enzyme.
# PFCDPK1(P. falciparum) = PFCDPK1(P. falciparum) (Plasmodium falciparum (isolate 3D7), UniProt P62344)
# Method: as §4, §5, §6
# PFPK5(P. falciparum) = PFPK5(P. falciparum) (Plasmodium falciparum (isolate 3D7), UniProt P61075)
# Method: as §4, §5, §6
# PKNB(M. tuberculosis) = PKNB(M. tuberculosis) (Mycobacterium tuberculosis (strain ATCC 25618 / H37Rv), UniProt P9WI81)
# Method: as §4, §5, §6
# PRP4 = PRP4 (Homo sapiens (Human), UniProt Q13523)
# Method: as §4, §5, §6
SMILES,remaining binding at 1 µM [1] [%],remaining binding at 1 µM (AKT1) [%],remaining binding at 1 µM (BMPR1A) [%],remaining binding at 1 µM (CAMK1) [%],remaining binding at 1 µM (CDKL1) [%],remaining binding at 1 µM (CTK) [%],remaining binding at 1 µM (DDR2) [%],remaining binding at 1 µM (DMPK) [%],remaining binding at 1 µM [2] [%],remaining binding at 1 µM (EPHA5) [%],remaining binding at 1 µM (IRAK4) [%],remaining binding at 1 µM (ITK) [%],remaining binding at 1 µM (JNK1) [%],remaining binding at 1 µM (KIT(D816H)) [%],remaining binding at 1 µM (MKK7) [%],remaining binding at 1 µM (NDR1) [%],remaining binding at 1 µM (NEK10) [%],remaining binding at 1 µM (PAK3) [%],remaining binding at 1 µM (PDGFRB) [%],remaining binding at 1 µM (PIP5K2C) [%],also measured
"CCNc1cc(Nc2ccc(C(=O)N3CCC(N4CCOCC4)CC3)cc2OC)nc2[nH]cc(C#N)c12 [Example 18, 4-(ethylamino)-6-((2-methoxy-4-(4-morpholinopiperidine-1-carbonyl)phenyl)amino)-1H-pyrrolo[2,3-b]pyridine-3-carbonitrile]",85,100,74,62,89,100,98,81,92,99,99,87,0,80,89,69,73,93,76,16,"percent of control binding at 1 µM (CSNK1D; CSNK1D, 1 uM): 5.3%; remaining binding at 1 µM [3]: 71%; remaining binding at 1 µM (SLK): 95%; remaining binding at 1 µM (SRMS): 80%; remaining binding at 1 µM (STK36): 98%; remaining binding at 1 µM (TXK): 99%; remaining binding at 1 µM (ULK1): 78%; remaining binding at 1 µM (YANK3): 96%; remaining binding at 1 µM (YSK4): 6.7%; remaining binding at 1 µM (CDC2L5): 100%; remaining binding at 1 µM (PFCDPK1(P. falciparum)): 72%; remaining binding at 1 µM (PFPK5(P. falciparum)): 98%; remaining binding at 1 µM (PKNB(M. tuberculosis)): 82%; remaining binding at 1 µM (PRP4): 100%"
"CCNc1cc(Nc2ccc(C(=O)N3CCC(N4CCOCC4)CC3)cc2OC)nc2[nH]cc(C(F)(F)F)c12 [Example 57, (4-((4-(ethylamino)-3-(trifluoromethyl)-1H-pyrrolo[2,3-b]pyridin-6-yl)amino)-3-methoxyphenyl) (4-morpholinopiperidin-1-yl)methanone]",100,97,80,78,63,84,91,100,97,85,100,97,40,96,93,89,100,83,92,71,percent of control binding at 1 µM (CSNK1D): 30%; remaining binding at 1 µM [3]: 80%; remaining binding at 1 µM (SLK): 80%; remaining binding at 1 µM (SRMS): 96%; remaining binding at 1 µM (STK36): 98%; remaining binding at 1 µM (TXK): 85%; remaining binding at 1 µM (ULK1): 94%; remaining binding at 1 µM (YANK3): 71%; remaining binding at 1 µM (YSK4): 100%; remaining binding at 1 µM (CDC2L5): 92%; remaining binding at 1 µM (PFCDPK1(P. falciparum)): 98%; remaining binding at 1 µM (PFPK5(P. falciparum)): 98%; remaining binding at 1 µM (PKNB(M. tuberculosis)): 100%; remaining binding at 1 µM (PRP4): 91%
